In patent publication US12703706B2, “Anthelmintic compounds comprising a thienopyridine structure” (Intervet Inc., priority 2020, dated 2026) one finds EC50 data, which are given here for 65 compounds.

The EC50 is the concentration that produces a half-maximal response. Read a low EC50 as higher potency in that assay.

Sequence of human Maxi K channel (BK channel), KCNMA1 (KCa1.1) and beta1 (KCNMB1) subunits (Q12791 1-1178 isoform Q12791-5): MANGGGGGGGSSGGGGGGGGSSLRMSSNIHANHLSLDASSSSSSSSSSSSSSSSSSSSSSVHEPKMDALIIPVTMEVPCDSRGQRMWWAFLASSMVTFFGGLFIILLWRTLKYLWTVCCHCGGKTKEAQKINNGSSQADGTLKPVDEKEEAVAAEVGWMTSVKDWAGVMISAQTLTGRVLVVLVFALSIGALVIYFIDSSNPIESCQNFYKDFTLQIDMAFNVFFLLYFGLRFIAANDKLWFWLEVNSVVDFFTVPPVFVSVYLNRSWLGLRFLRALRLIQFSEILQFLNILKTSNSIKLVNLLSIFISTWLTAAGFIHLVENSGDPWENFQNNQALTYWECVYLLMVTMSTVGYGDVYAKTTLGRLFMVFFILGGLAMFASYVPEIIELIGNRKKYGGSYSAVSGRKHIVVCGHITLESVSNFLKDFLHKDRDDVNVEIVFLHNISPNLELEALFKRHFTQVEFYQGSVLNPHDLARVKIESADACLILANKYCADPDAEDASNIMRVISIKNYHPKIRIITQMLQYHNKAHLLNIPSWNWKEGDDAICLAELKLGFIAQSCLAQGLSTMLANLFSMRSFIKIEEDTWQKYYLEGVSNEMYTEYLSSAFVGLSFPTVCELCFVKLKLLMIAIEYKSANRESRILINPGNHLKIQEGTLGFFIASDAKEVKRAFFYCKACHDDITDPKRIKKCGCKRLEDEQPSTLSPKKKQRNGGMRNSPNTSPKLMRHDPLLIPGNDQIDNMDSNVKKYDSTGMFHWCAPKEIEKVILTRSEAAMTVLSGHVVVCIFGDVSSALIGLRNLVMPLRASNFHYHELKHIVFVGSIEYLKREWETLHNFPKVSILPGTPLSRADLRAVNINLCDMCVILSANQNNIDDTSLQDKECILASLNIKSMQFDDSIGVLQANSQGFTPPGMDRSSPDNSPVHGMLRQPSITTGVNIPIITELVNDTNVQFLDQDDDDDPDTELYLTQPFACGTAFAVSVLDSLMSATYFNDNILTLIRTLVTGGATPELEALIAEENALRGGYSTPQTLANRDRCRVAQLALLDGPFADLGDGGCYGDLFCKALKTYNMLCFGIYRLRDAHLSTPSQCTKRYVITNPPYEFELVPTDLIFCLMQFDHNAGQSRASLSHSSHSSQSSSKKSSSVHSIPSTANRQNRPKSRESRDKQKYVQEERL
Sequence of human Maxi K channel (BK channel), KCNMA1 (KCa1.1) and beta1 (KCNMB1) subunits (Q16558 whole entry partner): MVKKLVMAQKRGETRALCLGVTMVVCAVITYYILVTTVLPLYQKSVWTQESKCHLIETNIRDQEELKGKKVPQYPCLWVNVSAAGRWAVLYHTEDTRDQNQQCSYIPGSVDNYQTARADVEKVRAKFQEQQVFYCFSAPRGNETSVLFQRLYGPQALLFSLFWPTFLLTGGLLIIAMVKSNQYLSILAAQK

This assay has as its target human Maxi K channel (BK channel), KCNMA1 (KCa1.1) and beta1 (KCNMB1) subunits (Homo sapiens, UniProt Q12791).
Protocol: In Vitro Assay: Agonistic Activity at the Human Maxi K Channel (BK Channel)
A CHO K1 cell line was stably transfected with the KCNMA1 (KCa1.1, U11058) and betal (KCNMB1) subunits of the human Maxi K channel (Ponte et al, Molecular Pharmacology 2012, 81(4), 567-577).
Cells were seeded in microtiter plates (black 384-well MTP, clear bottom) in a concentration of 20,000 cells/well in 25 μl medium and cultured for 20 to 24 hours at 37° C. and 5% CO2. After incubation, 25 μl of FMP-dye Blue-Tyrode's was added to each well and incubated at room temperature for 30 min. Ten minutes after addition of 12.5 μl compound solution, the plates are transferred to the FLIPR for measurement.
For the membrane potential measurements, plates were placed in the FLIPR Penta (Molecular Devices). The baseline measurement of the fluorescence was stared for 20 sec (Exc. 510-545 nm, Emm. 565-625 nm). Potential channel opening measurement was started by addition of 25 μl KCl-Tyrode (final assay concentration of the KCl-Tyrode: 70 mM KCl, 2 mM CaCl2, 1 mM MgCl2, 0.8 mM NaH2PO4, 5 mM Glucose, 28 mM Hepes, pH 7.4, including the voltage sensitive dye). The complete measurement takes 150 s.
EC50 values were determined in triplicate utilizing compound dilution series. The data were determined at least in two independent tests. The data were proceeded by using the ActivityBase XE Runner software (IDBS) for curve fitting and calculation of the half-maximal effective concentration.
Consider `O=C(N[C@H]1CCOc2ccccc21)c1cnc2c(-c3cc(Cl)cc(Cl)c3)csc2c1N1CCOCC1` [Compound 1], for which the EC50 is over 30 µM.
The same measure for `C[C@H](NC(=O)c1cnc2c(-c3cc(Cl)cc(Cl)c3)csc2c1N1CCOCC1)c1ccccc1` [Compound 2]: over 30 µM; for `O=C(N[C@H]1CCc2ccccc21)c1cnc2c(-c3cc(Cl)cc(Cl)c3)csc2c1N1CCOCC1` [Compound 3]: over 30 µM.
Under `O=C(N[C@H]1CCOc2ccccc21)c1cnc2c(-c3cccc(Cl)c3Cl)csc2c1N1CCOCC1` [Compound 4, (S)—N-(chroman-4-yl)-3-(2,3-dichlorophenyl)-7-morpholinothieno[3,2-b]pyridine-6-carboxamide] stands 5 to 10 µM; under `C[C@H](NC(=O)c1cnc2c(-c3cccc(Cl)c3Cl)csc2c1N1CCOCC1)c1ccccc1` [Compound 5], over 30 µM; under `O=C(N[C@H]1CCc2ccccc21)c1cnc2c(-c3cccc(Cl)c3Cl)csc2c1N1CCOCC1` [Compound 6], 5 to 10 µM.
In turn, `CN(C)c1c(C(=O)N[C@H]2CCOc3ccccc32)cnc2c(-c3cc(Cl)cc(Cl)c3)csc12` [Compound 7] registered an EC50 of over 30 µM.
Turning to `C[C@H](NC(=O)c1cnc2c(-c3cc(Cl)cc(Cl)c3)csc2c1N(C)C)c1ccccc1` [Compound 8], the EC50 is over 30 µM.
The same measure for `CN(C)c1c(C(=O)N[C@H]2CCc3ccccc32)cnc2c(-c3cc(Cl)cc(Cl)c3)csc12` [Compound 9]: over 30 µM.
Under `C[C@H](NC(=O)c1cnc2c(-c3cccc(Cl)c3Cl)csc2c1N(C)C)c1ccccc1` [Compound 11] stands over 30 µM; under `CN(C)c1c(C(=O)N[C@H]2CCc3ccccc32)cnc2c(-c3cccc(Cl)c3Cl)csc12` [Compound 12], over 30 µM.
In the case of `O=C(N[C@H]1CCCc2ccccc21)c1cnc2c(-c3cccc(Cl)c3Cl)csc2c1N1CCOCC1` [Compound 13], the EC50 fell in the range of 5 to 10 µM.
Under `O=C(N[C@H]1CCOc2ccccc21)c1cnc2c(-c3cc(F)cc(F)c3F)csc2c1N1CCOCC1` [Compound 15] stands over 30 µM; under `O=C(N[C@H]1CCc2ccccc21)c1cnc2c(-c3cc(F)cc(F)c3F)csc2c1N1CCOCC1` [Compound 16], over 30 µM; under `CN1CCN(c2c(C(=O)N[C@H]3CCCc4ccccc43)cnc3c(-c4cc(Cl)cc(Cl)c4)csc23)CC1` [Compound 18], over 30 µM.
The same measure for `CN1CCN(c2c(C(=O)N[C@H]3CCOc4ccccc43)cnc3c(-c4cc(Cl)cc(Cl)c4)csc23)CC1` [Compound 19]: over 30 µM; for `CN1CCN(c2c(C(=O)NC3CCOc4ccccc43)cnc3c(-c4cccc(Cl)c4Cl)csc23)CC1` (centres unmarked) [Compound 20]: over 30 µM.
For the compound `CN(C)c1c(C(=O)N[C@H]2CCCc3ccccc32)cnc2c(-c3cccc(Cl)c3Cl)csc12` [Compound 21], the EC50 is over 30 µM.
Take `CN(C)c1c(C(=O)Nc2cccc3ccccc23)cnc2c(-c3cccc(Cl)c3Cl)csc12` [Compound 22]: the EC50 was over 30 µM.
The compound `CN(C)c1c(C(=O)N[C@H]2CCOc3ccccc32)cnc2c(-c3cc(F)cc(F)c3F)csc12` [Compound 23] yielded an EC50 of over 30 µM.
On to `O=C(N[C@H]1CCOc2ccccc21)c1cnc2c(-c3cccc(F)c3F)csc2c1N1CCOCC1` [Compound 24], for which the EC50 is over 30 µM.
As for `CN(C)c1c(C(=O)N[C@H]2CCc3ccccc32)cnc2c(-c3cc(F)cc(F)c3F)csc12` [Compound 25], the EC50 was over 30 µM.
Under `O=C(N[C@H]1CCOc2ccccc21)c1cnc2c(-c3cccc(Cl)c3Cl)csc2c1N1CC(F)(F)C1` [Compound 26] stands over 30 µM; under `O=C(NC1CCOc2ccccc21)c1cnc2c(-c3cccc(Cl)c3Cl)csc2c1N1CC(F)(F)C1` (centres unmarked) [Compound 27], over 30 µM; under `CN(C)c1c(C(=O)NC2CCOc3ccccc32)cnc2c(-c3cccc(Cl)c3Cl)csc12` (centres unmarked) [Compound 28], over 30 µM.
The same measure for `CN1CCN(c2c(C(=O)N[C@H]3CCc4ccccc43)cnc3c(-c4cc(Cl)cc(Cl)c4)csc23)CC1` [Compound 29]: over 30 µM; for `CN1CCN(c2c(C(=O)NC3CCCc4ccccc43)cnc3c(-c4cc(Cl)cc(Cl)c4)csc23)CC1` (centres unmarked) [Compound 30]: over 30 µM.
The same measure for `CN(C)c1c(C(=O)N[C@H]2CCCc3ccccc32)cnc2c(-c3cc(Cl)cc(Cl)c3)csc12` [Compound 31]: over 30 µM.
In turn, `O=C(N[C@H]1CCCc2ccccc21)c1cnc2c(-c3cc(Cl)cc(Cl)c3)csc2c1N1CCOCC1` [Compound 32] gave an EC50 of over 30 µM.
Consider `Cc1sc2c(N(C)C)c(C(=O)N[C@H]3CCc4ccccc43)cnc2c1-c1cc(Cl)cc(Cl)c1` [Compound 33], for which the concentration giving a half-maximal response (EC50) was over 30 µM.
Under `Cc1sc2c(N(C)C)c(C(=O)N[C@H]3CCc4ccccc43)cnc2c1-c1cccc(Cl)c1Cl` [Compound 34] stands over 30 µM.
Under `Cc1sc2c(N(C)C)c(C(=O)N[C@H]3CCCc4ccccc43)cnc2c1-c1cccc(Cl)c1Cl` [Compound 35] stands over 30 µM.
In the case of `Cc1sc2c(N(C)C)c(C(=O)Nc3cccc4ccccc34)cnc2c1-c1cccc(Cl)c1Cl` [Compound 37], the EC50 is over 30 µM.
`Cc1sc2c(N(C)C)c(C(=O)N[C@H]3CCCc4ccccc43)cnc2c1-c1cc(Cl)cc(Cl)c1` [Compound 38]: the EC50 is over 30 µM.
The same measure for `O=C(N[C@H]1CCc2ccccc21)c1cnc2c(-c3cccc(Cl)c3Cl)csc2c1N1CC(F)(F)C1` [Compound 39]: over 30 µM.
Turning to `O=C(N[C@H]1CCOc2ccccc21)c1cnc2c(-c3cc(F)cc(F)c3F)csc2c1N1CC(F)(F)C1` [Compound 40], the concentration for a half-maximal effect (EC50) is over 30 µM.
Under `O=C(N[C@H]1CCc2ccccc21)c1cnc2c(-c3cc(F)cc(F)c3F)csc2c1N1CC(F)(F)C1` [Compound 41] stands over 30 µM.
Under `O=C(N[C@H]1CCOc2ccccc21)c1cnc2c(-c3cccc(C(F)(F)F)c3)csc2c1N1CCOCC1` [Compound 42] stands over 30 µM.
Under `COc1cccc(-c2csc3c(N4CCOCC4)c(C(=O)N[C@H]4CCOc5ccccc54)cnc23)c1` [Compound 43] stands over 30 µM; under `Cc1cccc(-c2csc3c(N4CCOCC4)c(C(=O)N[C@H]4CCOc5ccccc54)cnc23)c1C` [Compound 44], over 30 µM.
For the compound `O=C(N[C@H]1CCOc2ccccc21)c1cnc2c(-c3cc(F)cc(F)c3)csc2c1N1CCOCC1` [Compound 45], the EC50 is over 30 µM.
`CN(C)c1c(C(=O)N[C@H]2CCOc3ccccc32)cnc2c(-c3cccc(F)c3F)csc12` [Compound 46]: the EC50 is over 30 µM.
Compound `CN(C)c1c(C(=O)N[C@H]2CCOc3ccccc32)cnc2c(-c3cccc(C(F)(F)F)c3)csc12` [Compound 47] registered an EC50 of over 30 µM.
On to `COc1cccc(-c2csc3c(N(C)C)c(C(=O)N[C@H]4CCOc5ccccc54)cnc23)c1` [Compound 48], for which the EC50 is over 30 µM.
Under `O=C(Nc1cccc2ccccc12)c1cnc2c(-c3cc(Cl)cc(Cl)c3)csc2c1N1CCOCC1` [Compound 49] stands over 30 µM; under `CN(C)c1c(C(=O)Nc2cccc3ccccc23)cnc2c(-c3cc(Cl)cc(Cl)c3)csc12` [Compound 50], over 30 µM; under `CN(C)c1c(C(=O)N[C@H]2CCOc3ccccc32)cnc2c(-c3cc(F)cc(F)c3)csc12` [Compound 51], over 30 µM.
In turn, `O=C1CCN(c2c(C(=O)N[C@H]3CCOc4ccccc43)cnc3c(-c4cc(Cl)cc(Cl)c4)csc23)CC1` [Compound 52] had a half-maximal effective concentration (EC50) of over 30 µM.
Under `Cc1sc2c(N(C)C)c(C(=O)Nc3cccc4ccccc34)cnc2c1-c1cc(Cl)cc(Cl)c1` [Compound 54] stands over 30 µM; under `Cc1sc2c(N3CC(F)(F)C3)c(C(=O)N[C@H]3CCCc4ccccc43)cnc2c1-c1cccc(Cl)c1Cl` [Compound 55], over 30 µM; under `Cc1sc2c(N3CC(F)(F)C3)c(C(=O)N[C@H]3CCc4ccccc43)cnc2c1-c1cccc(Cl)c1Cl` [Compound 57], over 30 µM.
As to `Cc1sc2c(N3CC(F)(F)C3)c(C(=O)N[C@H]3CCCc4ccccc43)cnc2c1-c1cc(Cl)cc(Cl)c1` [Compound 58], the EC50 was over 30 µM.
For `Cc1sc2c(N3CC(F)(F)C3)c(C(=O)N[C@H]3CCOc4ccccc43)cnc2c1-c1cc(Cl)cc(Cl)c1` [Compound 59], the EC50 was over 30 µM.
`Cc1sc2c(N3CC(F)(F)C3)c(C(=O)N[C@H]3CCc4ccccc43)cnc2c1-c1cc(Cl)cc(Cl)c1` [Compound 60] returned an EC50 of over 30 µM.
The compound `Cc1sc2c(N3CC(F)C3)c(C(=O)N[C@H]3CCCc4ccccc43)cnc2c1-c1cccc(Cl)c1Cl` [Compound 61] registered an EC50 of over 30 µM.
The same measure for `Cc1sc2c(N3CC(F)C3)c(C(=O)N[C@H]3CCc4ccccc43)cnc2c1-c1cccc(Cl)c1Cl` [Compound 63]: over 30 µM.
Compound `Cc1sc2c(N3CC(F)C3)c(C(=O)N[C@H]3CCCc4ccccc43)cnc2c1-c1cc(Cl)cc(Cl)c1` [Compound 64] had an EC50 of over 30 µM.
On to `Cc1sc2c(N3CC(F)C3)c(C(=O)N[C@H]3CCc4ccccc43)cnc2c1-c1cc(Cl)cc(Cl)c1` [Compound 66], for which the EC50 was over 30 µM.
Under `Cc1sc2c(N3CCOCC3)c(C(=O)N[C@H]3CCCc4ccccc43)cnc2c1-c1cc(Cl)cc(Cl)c1` [Compound 67] stands over 30 µM; under `Cc1sc2c(N3CCOCC3)c(C(=O)N[C@H]3CCc4ccccc43)cnc2c1-c1cc(Cl)cc(Cl)c1` [Compound 69], over 30 µM; under `Cc1sc2c(N3CCOCC3)c(C(=O)Nc3cccc4ccccc34)cnc2c1-c1cc(Cl)cc(Cl)c1` [Compound 70], over 30 µM.
The compound `Cc1sc2c(N3CCOCC3)c(C(=O)N[C@H]3CCCc4ccccc43)cnc2c1-c1cccc(Cl)c1Cl` [Compound 71] gave an EC50 of over 30 µM.
Compound `Cc1sc2c(N3CCOCC3)c(C(=O)N[C@H]3CCc4ccccc43)cnc2c1-c1cccc(Cl)c1Cl` [Compound 73] showed an EC50 of over 30 µM.
Take `Cc1sc2c(N3CCOCC3)c(C(=O)Nc3cccc4ccccc34)cnc2c1-c1cccc(Cl)c1Cl` [Compound 74]: the EC50 was over 30 µM.
For the compound `Cc1cccc(-c2csc3c(N(C)C)c(C(=O)N[C@H]4CCOc5ccccc54)cnc23)c1C` [Compound 75], the EC50 is over 30 µM.
